Tests used:
Experiment in all cases: relative viability (nuclei count vs DMSO), 5 days (fraction); higher = more cells survive
MLN4924 + Pemetrexed = compound: NS(=O)(=O)OC[C@@H]1C[C@@H](n2ccc3c(N[C@H]4CCc5ccccc54)ncnc32)C[C@@H]1O [MLN4924] + Nc1nc2[nH]cc(CCc3ccc(C(=O)N[C@@H](CCC(=O)O)C(=O)O)cc3)c2c(=O)[nH]1 [Pemetrexed] (partner 0.2 µM)
Summary of the method: (§1)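 Lung cancer cell lines were pin-tool dosed in 1536-well plates on the day after seeding, with either a lone drug or a fixed anchor-drug dose plus five library-drug doses (not always all listed) in √10 steps. Nuclei were counted on 4× images after 5 days. Relative viability is the ratio of treated-well to vehicle-well nuclei counts, with each value a median of duplicate plates.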

GSK126 + Palbociclib = compound: CC[C@H](C)N1C=C(C2=C(C=C(C=C21)C3=CN=C(C=C3)N4CCNCC4)C(=O)NCC5=C(C=C(NC5=O)C)C)C [GSK126] + CC(=O)c1c(C)c2cnc(Nc3ccc(N4CCNCC4)cn3)nc2n(C2CCCC2)c1=O [Palbociclib] (partner 0.5 µM)
Summary of the method: as §1

Carboplatin + Navitoclax = compound: C1CC(C1)(C(=O)O)C(=O)O.[NH2-].[NH2-].[Pt+2] [Carboplatin] + CC1(C)CCC(c2ccc(Cl)cc2)=C(CN2CCN(c3ccc(C(=O)NS(=O)(=O)c4ccc(N[C@H](CCN5CCOCC5)CSc5ccccc5)c(S(=O)(=O)C(F)(F)F)c4)cc3)CC2)C1 [Navitoclax] (partner 0.5 µM)
Summary of the method: as §1

GSK126 + Navitoclax = compound: CC[C@H](C)N1C=C(C2=C(C=C(C=C21)C3=CN=C(C=C3)N4CCNCC4)C(=O)NCC5=C(C=C(NC5=O)C)C)C [GSK126] + CC1(C)CCC(c2ccc(Cl)cc2)=C(CN2CCN(c3ccc(C(=O)NS(=O)(=O)c4ccc(N[C@H](CCN5CCOCC5)CSc5ccccc5)c(S(=O)(=O)C(F)(F)F)c4)cc3)CC2)C1 [Navitoclax] (partner 0.5 µM)
Summary of the method: as §1

Cell Line | relative viability (MLN4924 + Pemetrexed; first compound 0.1265 µM) | relative viability (MLN4924 + Pemetrexed; first compound 0.4 µM) | relative viability (MLN4924 + Pemetrexed; first compound 1.265 µM) | relative viability (MLN4924 + Pemetrexed; first compound 4 µM) | relative viability (GSK126 + Palbociclib; first compound 0.08 µM) | relative viability (GSK126 + Palbociclib; first compound 0.253 µM) | relative viability (GSK126 + Palbociclib; first compound 0.8 µM) | relative viability (GSK126 + Palbociclib; first compound 2.53 µM) | relative viability (GSK126 + Palbociclib; first compound 8 µM) | relative viability (MLN4924 + Pemetrexed; first compound 0.04 µM) | relative viability (Carboplatin + Navitoclax; first compound 0.08 µM) | relative viability (Carboplatin + Navitoclax; first compound 0.253 µM) | relative viability (Carboplatin + Navitoclax; first compound 0.8 µM) | relative viability (Carboplatin + Navitoclax; first compound 2.53 µM) | relative viability (Carboplatin + Navitoclax; first compound 8 µM) | relative viability (GSK126 + Navitoclax; first compound 0.08 µM) | relative viability (GSK126 + Navitoclax; first compound 0.253 µM) | relative viability (GSK126 + Navitoclax; first compound 0.8 µM) | relative viability (GSK126 + Navitoclax; first compound 2.53 µM) | relative viability (GSK126 + Navitoclax; first compound 8 µM)
SW 900 | 0.397 | 0.261 | 0.194 | 0.168 | 0.659 | 0.514 | 0.518 | 0.61 | 0.585 | – | – | – | – | – | – | – | – | – | – | –
NCI-H2342 | 0.787 | 0.815 | 0.714 | 0.559 | 0.566 | 0.575 | 0.508 | 0.572 | 0.522 | 0.796 | – | – | – | – | – | – | – | – | – | –
NCI-H441 | 0.222 | 0.234 | 0.139 | 0.187 | 0.193 | 0.232 | 0.21 | 0.243 | 0.257 | 0.248 | 0.657 | 1.19 | 0.447 | 0.545 | 0.526 | 0.948 | 0.429 | 0.578 | 0.878 | 0.678
NCI-H3122 | 0.219 | 0.17 | 0.155 | 0.138 | 0.225 | 0.181 | 0.181 | 0.183 | 0.187 | 0.202 | 1.03 | 0.988 | 1.01 | 1.02 | 0.97 | 1.04 | 1.06 | 1.05 | 1 | 1.02
HCC-78 | 0.899 | 0.918 | 0.881 | 0.892 | 0.473 | 0.38 | 0.497 | 0.461 | 0.492 | 0.882 | 0.782 | 0.92 | 0.707 | 0.751 | 0.816 | 1.01 | 0.711 | 0.832 | 0.741 | 0.804
HCC-827 | 0.271 | 0.266 | 0.176 | 0.17 | 0.492 | 0.54 | 0.486 | 0.483 | 0.469 | 0.278 | 0.999 | 0.98 | 0.927 | 0.982 | 0.918 | 1.07 | 1.03 | 0.987 | 0.967 | 0.95
Calu-6 | – | – | – | – | – | – | – | – | – | – | 0.931 | 0.77 | 0.824 | 0.737 | 0.296 | 0.936 | 0.858 | 0.853 | 0.842 | 0.795
NCI-H2009 | 0.884 | 0.218 | 0.133 | 0.0755 | 0.183 | 0.176 | 0.181 | 0.257 | 0.322 | 0.941 | 1.12 | 1.08 | 1.09 | 1.04 | 0.733 | 1.23 | 1.14 | 1.19 | 1.1 | 1.16
NCI-H322M | 0.776 | 0.549 | 0.3 | 0.422 | 0.568 | 0.488 | 0.505 | 0.485 | 0.45 | 0.719 | 1.26 | 1.22 | 1.18 | 1.13 | 1.05 | 1.19 | 1.35 | 1.11 | 1.22 | 1.17
NCI-H23 | 0.842 | 0.421 | 0.256 | 0.213 | 0.6 | 0.583 | 0.565 | 0.628 | 0.515 | 0.74 | 0.887 | 0.9 | 0.789 | 0.835 | 0.588 | 0.847 | 0.837 | 0.895 | 0.996 | 1.03
NCI-H1648 | 0.76 | 0.559 | 0.321 | 0.359 | 0.291 | 0.357 | 0.275 | 0.288 | 0.293 | 0.748 | – | – | – | – | – | – | – | – | – | –
NCI-H358 | 0.16 | 0.134 | 0.107 | 0.128 | 0.13 | 0.131 | 0.12 | 0.146 | 0.136 | 0.177 | – | – | – | – | – | – | – | – | – | –
NCI-H1944 | 0.56 | 0.405 | 0.186 | 0.157 | 0.407 | 0.334 | 0.332 | 0.36 | 0.352 | 0.602 | 1.1 | 1.1 | 0.991 | 1.02 | 0.656 | 1.28 | 1.02 | 1.01 | 0.996 | 1.2
LCLC-103H | 0.504 | 0.285 | 0.315 | 0.329 | 0.452 | 0.546 | 0.466 | 0.441 | 0.5 | 0.477 | – | – | – | – | – | – | – | – | – | –
ABC-1 | – | – | – | – | 0.768 | 0.735 | 0.675 | 0.98 | 0.675 | – | – | – | – | – | – | – | – | – | – | –
NCI-H661 | 0.77 | 0.494 | 0.426 | 0.44 | 0.43 | 0.419 | 0.414 | 0.43 | 0.431 | 0.773 | – | – | – | – | – | – | – | – | – | –
NCI-H1563 | 1.48 | 0.649 | 0.495 | 0.405 | – | – | – | – | – | 1.08 | – | – | – | – | – | – | – | – | – | –
NCI-H650 | 0.471 | 0.213 | 0.15 | 0.165 | 0.349 | 0.315 | 0.331 | 0.322 | 0.352 | 0.921 | – | – | – | – | – | – | – | – | – | –
NCI-H596 | 0.511 | 0.405 | 0.496 | 0.437 | – | – | – | – | – | 0.49 | 1 | 0.952 | 0.803 | 0.74 | 0.695 | 0.92 | 0.85 | 0.988 | 1.1 | 0.961
NCI-H522 | 0.859 | 0.612 | 0.323 | 0.383 | 1.09 | 0.772 | 0.991 | 1.06 | 1.07 | 0.876 | – | – | – | – | – | – | – | – | – | –
IA-LM | – | – | – | – | – | – | – | – | – | – | 0.756 | 0.553 | 0.826 | 0.675 | 0.532 | 0.702 | 0.691 | 0.758 | 0.761 | 0.947
NCI-H727 | – | – | – | – | 0.681 | 0.641 | 0.67 | 0.75 | 0.659 | – | 0.487 | 0.393 | 0.426 | 0.441 | 0.324 | 0.444 | 0.354 | 0.51 | 0.408 | 0.361
